According to ChEMBL document CHEMBL4619828, “Discovery of Potent and Orally Bioavailable Small Molecule Antagonists of Toll-like Receptors 7/8/9 (TLR7/8/9)” (ACS Med Chem Lett, 2020):

How the values were obtained:
Toll-like receptor 3 = biological target: T1, Toll-like receptor 3 (Homo sapiens, UniProt O15455); assay: Antagonist activity at human TLR3 overexpressed in HEK-Blue cells assessed as inhibition of Poly IC-induced NFkappaB and AP-1 activation preincubated for 30 mins followed by Poly IC stimulation measured after 22 hrs by quanti-blue SEAP assay; type: cell-based
T1 sequence (O15455 whole entry): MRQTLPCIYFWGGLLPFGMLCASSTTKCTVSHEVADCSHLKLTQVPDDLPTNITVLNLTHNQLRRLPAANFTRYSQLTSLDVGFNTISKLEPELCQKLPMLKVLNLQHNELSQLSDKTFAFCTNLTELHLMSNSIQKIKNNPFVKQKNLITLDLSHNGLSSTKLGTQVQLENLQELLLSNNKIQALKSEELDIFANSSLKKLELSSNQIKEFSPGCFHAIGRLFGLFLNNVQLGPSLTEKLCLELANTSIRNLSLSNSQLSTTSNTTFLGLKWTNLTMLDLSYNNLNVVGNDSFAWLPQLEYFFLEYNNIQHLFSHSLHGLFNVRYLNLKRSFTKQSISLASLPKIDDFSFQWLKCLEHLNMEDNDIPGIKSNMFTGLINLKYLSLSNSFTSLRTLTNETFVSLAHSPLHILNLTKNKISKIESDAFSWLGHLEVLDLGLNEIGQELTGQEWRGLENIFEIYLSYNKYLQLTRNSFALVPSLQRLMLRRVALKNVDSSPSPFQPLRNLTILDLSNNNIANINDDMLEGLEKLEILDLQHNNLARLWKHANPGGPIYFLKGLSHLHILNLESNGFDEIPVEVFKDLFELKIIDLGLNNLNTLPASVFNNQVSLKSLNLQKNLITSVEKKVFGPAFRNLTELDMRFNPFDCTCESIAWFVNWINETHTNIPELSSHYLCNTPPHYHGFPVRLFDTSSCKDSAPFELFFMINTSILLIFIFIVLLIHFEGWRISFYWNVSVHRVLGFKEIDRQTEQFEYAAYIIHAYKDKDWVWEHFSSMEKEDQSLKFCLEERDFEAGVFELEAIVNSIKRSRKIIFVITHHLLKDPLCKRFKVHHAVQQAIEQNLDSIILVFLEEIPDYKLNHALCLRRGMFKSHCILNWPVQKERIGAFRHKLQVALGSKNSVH

[1] = Oral bioavailability in mouse at 15 mg/kg; type: ADME, organism-based; conditions: in vivo
Toll-like receptor 9 = biological target: T2, Toll-like receptor 9 (Mus musculus, UniProt Q9EQU3)
T2 sequence (Q9EQU3 whole entry): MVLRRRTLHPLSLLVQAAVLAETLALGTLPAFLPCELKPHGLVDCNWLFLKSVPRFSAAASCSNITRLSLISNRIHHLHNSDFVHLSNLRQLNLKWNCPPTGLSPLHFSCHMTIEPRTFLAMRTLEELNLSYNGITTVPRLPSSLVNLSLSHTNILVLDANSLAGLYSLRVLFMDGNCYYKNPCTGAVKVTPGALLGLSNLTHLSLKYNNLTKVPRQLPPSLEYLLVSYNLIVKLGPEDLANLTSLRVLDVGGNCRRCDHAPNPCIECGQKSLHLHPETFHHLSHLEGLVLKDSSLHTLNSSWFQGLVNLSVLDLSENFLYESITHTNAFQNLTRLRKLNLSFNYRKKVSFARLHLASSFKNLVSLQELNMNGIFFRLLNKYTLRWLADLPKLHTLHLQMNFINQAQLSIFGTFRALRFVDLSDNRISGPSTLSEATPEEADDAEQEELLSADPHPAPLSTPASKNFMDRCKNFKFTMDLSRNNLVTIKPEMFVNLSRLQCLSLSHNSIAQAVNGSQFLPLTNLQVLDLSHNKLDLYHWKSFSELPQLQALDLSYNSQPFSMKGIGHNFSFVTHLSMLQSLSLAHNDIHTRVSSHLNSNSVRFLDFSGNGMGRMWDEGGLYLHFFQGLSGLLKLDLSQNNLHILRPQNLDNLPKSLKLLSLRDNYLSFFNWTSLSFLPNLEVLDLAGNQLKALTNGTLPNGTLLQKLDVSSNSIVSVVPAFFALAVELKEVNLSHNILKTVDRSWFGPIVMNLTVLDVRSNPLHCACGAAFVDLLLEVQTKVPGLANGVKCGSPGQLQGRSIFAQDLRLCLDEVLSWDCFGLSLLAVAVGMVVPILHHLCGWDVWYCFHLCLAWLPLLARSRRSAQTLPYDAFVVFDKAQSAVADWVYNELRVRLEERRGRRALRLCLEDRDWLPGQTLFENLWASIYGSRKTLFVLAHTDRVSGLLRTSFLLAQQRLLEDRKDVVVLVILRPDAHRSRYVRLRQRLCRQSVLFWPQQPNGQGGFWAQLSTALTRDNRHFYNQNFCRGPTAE
Description: In vivo antagonist activity at TLR9 in po dosed C57BL/6 mouse assessed as reduction of CpG-ODN-1585-induced IL-6 production pretreated for 30 mins followed by CpG-ODN-1585-stimulation and measured after 120 mins by ELISA

IC50 (Toll-like receptor 3): 5.44 µM
bioavailability [1]: 62%
EC50 (Toll-like receptor 9): 0.025 µM
SMILES: CNCCN1CCC(c2ccc3[nH]c(-c4ccc(OC)c(OC)c4)c(C(C)C)c3c2)CC1
